≈ marks a conversion by molar mass, not a printed value.
Tests used:
[1] = tested on: black mold (A. niger, JCM10254); assay: Verification test of antimicrobial effects (minimum inhibitory concentration) on black mold; type: cell-based; settings: for Minimum inhibitory concentration / MIC: A. niger, cultured at 30° C. aerobic four days, visual turbidity, 156-2500 ppm tested; for MIC: Aspergillus niger, JCM10254, 96 h; for antimicrobial activities, comparison in words: against black mold (A. niger), from the results in Table 1
Protocol: (§1) 0.5 ml of a previously sterilized culture medium (trade name “Potato dextrose liquid culture medium”, made by Nissui Pharmaceutical Co., Ltd. was placed into a 96-well deep type microplate, then the propanediol mono-β-hydroxycarboxylic acid esters (the present invention products 1 to 10), the glycerin mono β-hydroxydecanoic acid ester (comparative product 1), the β-hydroxydecanoic acid potassium (comparative product 2) prepared in the above descriptions of (1) to (5) as well as 1,2-octanediol (comparative product 3), 1,2-propanediol (comparative product 4) and 1,3-propanediol (comparative product 5) known as an auxiliary antiseptic agent for external preparations for skin were respectively added, and the culture medium was diluted in a step-wise manner so that the final concentration in the medium was 156 ppm, 312 ppm, 625 ppm, 1250 ppm, and 2500 ppm to prepare sample solutions.
(§2) To these sample solutions, 0.1 ml of each culture solution of blackmold (A. niger, JCM10254) and yeast (C. albicans, NBRC1594) at approximately 1×10^6 CFU/ml were added, and the solutions were cultured at 30° C. under an aerobic condition for four days. Antimicrobial effects were visually determined. The solutions were compared with test areas in which the above microorganisms had not been added. Test areas in which no turbidity due to growth of the microorganism was observed were determined to have antimicrobial effects, and the lowest concentration necessary for inhibiting the growth of the microorganism (hereinafter referred to as “minimum inhibitory concentration”) was measured.

[2] = tested on: yeast (C. albicans, NBRC1594); assay: Verification test of antimicrobial effects (minimum inhibitory concentration) on yeast; type: cell-based; settings: for Minimum inhibitory concentration / MIC: C. albicans, cultured at 30° C. aerobic four days, visual turbidity, 156-2500 ppm tested; for MIC: 96 h; for antimicrobial activities, comparison in words: against yeast (C. albicans), from the results in Table 1
Protocol: as §1, §2

[3] = Compounding property in cosmetic, pharmaceutical and industrial formulations; type: physicochemical; settings: 0.30 weight %
Protocol: Glycerin, DPG, POE (60) hydrogenated castor oil, and 1,3-propanediol mono-β-hydroxydecanoic acid ester were mixed and dissolved by being heated to 70° C. (the resulting mixture was referred to as a mixture A). On the other hand, citrate acid Na, citric acid, glycine, alanine, hyaluronic acid Na, and water were individually mixed at room temperature (the resulting mixture was referred to as a mixture B). Then, the mixture A and the mixture B were combined and mixed at 50° C., and thus a lotion was obtained.
Cetanol, squalane, stearic acid, γ-tocopherol, BHT, polyethylene glycol monostearate (25EO), glycerin stearic acid monoester, and 1,3-propanediol mono-β-hydroxydecanoic acid ester were individually mixed and dissolved by being heated to 70° C. (the resulting mixture was referred to as a mixture A). On the other hand, 1,3-butanediol, carboxy vinyl polymer, and potassium hydroxide were individually mixed at room temperature (the resulting mixture was referred to as a mixture B). Then, the mixture A and the mixture B were combined and heated to 60° C. and were vigorously stirred and emulsified while being gradually added in small quantities to the purified water, and thus a milky lotion was obtained.
With regard to the compounding example 6, pantothenic acid, hyaluronic acid, thioxolone, hydrocortisone acetate, tocopherol, and minoxidil were mixed individually and dissolved by being heated to 70° C. (the resulting mixture was referred to as a mixture A). On the other hand, glycerin, polyoxyethylene glycol monoether, ethanol, and the present invention product 8 (1,3-propanediol mono-β-hydroxydecanoic acid ester) were mixed at room temperature (the resulting mixture was referred to as a mixture B). Then, the mixture A and the mixture B were combined and heated to 70° C. and were vigorously stirred while being added gradually in small quantities to water, and thus a hair growth liquid was obtained.
In preparing the compounding example 11, polyoxyethylene nonylphenylether, polyoxyethylene sorbitan monosterate, BHT, and fragrant material were mixed individually and dissolved by being heated to 80° C. (the resulting mixture was referred to as a mixture A). On the other hand, gellan gum, propylene glycol, the present invention product 8 (1,3-propanediol mono-β-hydroxydecanoic acid ester), and water were mixed at 80° C. (the resulting mixture was referred to as a mixture B). Then, the mixture B was gradually added in small quantities to the mixture A, heated to 80° C., and were vigorously stirred, and thus a transparent aqueous aromatic agent for vehicles was obtained.

[4] = hair growth liquid (compounding example 6)
[5] = transparent aqueous aromatic agent for vehicles (compounding example 11)

SMILES | Minimum inhibitory concentration [1] [ppm] | Minimum inhibitory concentration [2] [ppm] | MIC [1] [µg/mL] | MIC [2] [µg/mL] | antimicrobial activities, comparison in words [2] | other results
CCCCCCCC(O)CC(=O)OCC(O)CO (stereo not drawn) [Comparative product 1, glycerin mono β-hydroxydecanoic acid ester, reference compound] | 2500 | >2500 | – | – | – | –
CCCCCCCC(O)CC(=O)O.[K] (stereo not drawn) [Comparative product 2, β-hydroxydecanoic acid potassium, reference compound] | – | – | 1250 | 2500 | – | –
CCCCCCC(O)CO (stereo not shown) [Comparative product 3, 1,2-octanediol, reference compound] | – | – | 2500 (≈ 17100 µM) | 2500 (≈ 17100 µM) | – | –
CC(O)CO (stereo not shown) [Comparative product 4, 1,2-propanediol, reference compound] | >2500 | >2500 | – | – | lower antimicrobial activities | antimicrobial activities, comparison in words [1]: lower antimicrobial activities
OCCCO [Comparative product 5, 1,3-propanediol, reference compound] | >2500 | >2500 | – | – | lower antimicrobial activities | antimicrobial activities, comparison in words [1]: lower antimicrobial activities
CCCCCCCCCC(O)CC(=O)OCC(C)O (stereo not drawn) [Present invention product 1, 1,2-propanediol mono-β-hydroxydodecanoic acid ester] | – | – | 312 (≈ 1140 µM) | 312 (≈ 1140 µM) | – | –
CCCCCCCCC(O)CC(=O)OCC(C)O (stereo not drawn) [Present invention product 2, 1,2-propanediol mono-β-hydroxyundecanoic acid ester] | – | – | 312 (≈ 1200 µM) | 312 (≈ 1200 µM) | – | –
CCCCCCCC(O)CC(=O)OCC(C)O (stereo not drawn) [Present invention product 3, 1,2-propanediol mono-β-hydroxydecanoic acid ester] | – | – | 312 (≈ 1270 µM) | 625 (≈ 2540 µM) | very stronger antimicrobial activities | antimicrobial activities, comparison in words [1]: very stronger antimicrobial activities
CCCCCCC(O)CC(=O)OCC(C)O (stereo not drawn) [Present invention product 4, 1,2-propanediol mono-β-hydroxynonanoic acid ester] | 1250 | 1250 | – | – | – | –
CCCCCC(O)CC(=O)OCC(C)O (stereo not drawn) [Present invention product 5, 1,2-propanediol mono-β-hydroxyoctanoic acid ester] | 2500 | >2500 | – | – | lower than 1,2-octanediol | –
CCCCCCCCCC(O)CC(=O)OCCCO (stereo not drawn) [Present invention product 6, 1,3-propanediol mono-β-hydroxydodecanoic acid ester] | – | – | 156 (≈ 569 µM) | 312 (≈ 1140 µM) | – | –
CCCCCCCCC(O)CC(=O)OCCCO (stereo not drawn) [Present invention product 7, 1,3-propanediol mono-β-hydroxyundecanoic acid ester] | – | – | 312 (≈ 1200 µM) | 312 (≈ 1200 µM) | – | –
CCCCCCCC(O)CC(=O)OCCCO (stereo not drawn) [Present invention product 8, 1,3-propanediol mono-β-hydroxydecanoic acid ester] | – | – | 312 (≈ 1270 µM) | 625 (≈ 2540 µM) | very stronger antimicrobial activities | antimicrobial activities, comparison in words [1]: very stronger antimicrobial activities; compounding property: mixing with other components [3, 4]: easily mixed with other components; compounding property: turbidity or precipitation in the obtained product [3, 4]: not found; compounding property: mixing with other components ([3]; lotion): easily mixed with other components; compounding property: turbidity or precipitation in the obtained product ([3]; lotion): not found; compounding property: mixing with other components [3, 5]: easily mixed with other components; compounding property: turbidity or precipitation in the obtained product [3, 5]: not found
CCCCCCC(O)CC(=O)OCCCO (stereo not drawn) [Present invention product 9, 1,3-propanediol mono-β-hydroxynonanoic acid ester] | 1250 | 1250 | – | – | – | –
CCCCCC(O)CC(=O)OCCCO (stereo not drawn) [Present invention product 10, 1,3-propanediol mono-β-hydroxyoctanoic acid ester] | 2500 | >2500 | – | – | lower than 1,2-octanediol | –

Source: US9433211B2, “Antimicrobial agent” (TAIYO CORPORATION, priority 2012, dated 2016)
